Assay results taken from US20170198318A1, “METHOD OF MANUFACTURING METHOXY-ISOFLAVONES BY BIOTRANSFORMATION AND USE THEREOF” (NATIONAL UNIVERSITY OF TAINAN, priority 2016, published 2017).

Assays:
[1] = system: Mouse B16 melanoma cells (4A5); assay: Cell viability (MTT method) in B16 cells; format: cell-based; details: under a concentration of 25 μM, with 400 μM IBMX, 2 days
Procedure: The ranges of non-toxic concentrations of the compounds toward the B16 cells was first determined with the 3-(4,5-dimethylthiazol-2-yl)-2,5-diphenyltetrazolium bromide (MTT) method. Mouse B16 melanoma cells (4A5) was purchased from the Bioresources Collection and Research Center (BCRC, Food Industry Research and Development Institute, Hsinchu, Taiwan). Determinations of cell viability and melanin content were performed as previously reported [Appl. Microbiol. Biotechnol. 2007; 73:1169-1172] and described briefly below. Dulbecco's modified Eagle's medium (DMEM) containing 10% (v/v) fetal bovine serum was used to cultivate mouse B16 cells, which were incubated at 37° C. in a humidified, CO2-controlled (5%) incubator. After 1 day of incubation, the cells were treated with tested drugs in the presence of a melanogenesis stimulation agent (400 μM of 3-isobutyl-1-methylxanthine (IBMX)) for another 2 days. Then, the drug-treated cells were harvested and the cell viability and melanin content were measured according to the previous study [Curr. Pharma. Biotechnol. 2015; 16:1085-1093]. […]
The X axis includes different treatment conditions, and the Y axis of the results represents cell survival rate or relative melanin content. Both of the cell survival rate and the relative melanin content are expressed as percentage of control (% of control). […]

[2] = system: Mouse B16 melanoma cells (4A5); assay: Melanin content / inhibition of melanogenesis in IBMX-stimulated B16 cells; format: cell-based
Procedure: The ranges of non-toxic concentrations of the compounds toward the B16 cells was first determined with the 3-(4,5-dimethylthiazol-2-yl)-2,5-diphenyltetrazolium bromide (MTT) method. Mouse B16 melanoma cells (4A5) was purchased from the Bioresources Collection and Research Center (BCRC, Food Industry Research and Development Institute, Hsinchu, Taiwan). Determinations of cell viability and melanin content were performed as previously reported [Appl. Microbiol. Biotechnol. 2007; 73:1169-1172] and described briefly below. Dulbecco's modified Eagle's medium (DMEM) containing 10% (v/v) fetal bovine serum was used to cultivate mouse B16 cells, which were incubated at 37° C. in a humidified, CO2-controlled (5%) incubator. After 1 day of incubation, the cells were treated with tested drugs in the presence of a melanogenesis stimulation agent (400 μM of 3-isobutyl-1-methylxanthine (IBMX)) for another 2 days. Then, the drug-treated cells were harvested and the cell viability and melanin content were measured according to the previous study [Curr. Pharma. Biotechnol. 2015; 16:1085-1093]. In this experiment, cells only treated with IBXM is used as a negative control and cells treated with 20 μM danazol is used as a positive control.
The X axis includes different treatment conditions, and the Y axis of the results represents cell survival rate or relative melanin content. Both of the cell survival rate and the relative melanin content are expressed as percentage of control (% of control). […] Accordingly, the 25 μM was used as the maximum concentration in the determination of the inhibition of melanogenesis.
Pharm. Res. 2010; 33:1959-19].

melanogenesis = details: Arch. Pharm. Res. 2010; cited from earlier work
[3] = non-toxic concentrations, 400 μM IBMX, 2 days

COc1c(O)ccc2c(=O)c(-c3ccc(O)cc3)coc12 [compound (1), 7,4′-dihydroxy-8-methoxy-isoflavone]
cytotoxicity (cell survival rate) [1]: did not exhibit cytotoxicity | inhibition of melanogenesis ([2]; 6.25 μM and 25 μM, compared with the control group): show inhibition of melanogenesis | activity at 25 µM ([2]; Mus musculus, 48 h, 25 μM, 400 μM IBMX, 2 days, read-out: melanin content (% of control)): 63.5% | inhibition of melanogenesis compared with positive control danazol ([2]; danazol 20 μM): greater than that produced by danazol | inhibition of melanogenesis [2, 3]: dose-dependently inhibited melanogenesis | inhibition of melanogenesis ([2]; non-toxic concentrations, 400 μM IBMX, 2 days, listed as 7,4′-dihydroxy-8-methoxy-isoflavone): inhibitory effect on melanogenesis

COc1ccc2c(=O)c(-c3ccc(O)cc3)coc2c1O [compound (2), 8,4′-dihydroxy-7-methoxy-isoflavone]
cytotoxicity (cell survival rate) [1]: did not exhibit cytotoxicity | inhibition of melanogenesis [2, 3]: dose-dependently inhibited melanogenesis

C#C[C@]1(O)CC[C@H]2[C@@H]3CCC4=Cc5oncc5C[C@]4(C)[C@H]3CC[C@@]21C [danazol]
melanogenesis inhibition (previously identified) (melanogenesis): potent melanogenesis inhibitor
